Among the data in patent US20100168243A1, “Renin Inhibitors” (priority 2007, published 2010) are IC50 values, retold here.

For this test, the target named is T1, trypsin-activated recombinant human renin (Homo sapiens, UniProt P00797).
T1 sequence (P00797 67-406): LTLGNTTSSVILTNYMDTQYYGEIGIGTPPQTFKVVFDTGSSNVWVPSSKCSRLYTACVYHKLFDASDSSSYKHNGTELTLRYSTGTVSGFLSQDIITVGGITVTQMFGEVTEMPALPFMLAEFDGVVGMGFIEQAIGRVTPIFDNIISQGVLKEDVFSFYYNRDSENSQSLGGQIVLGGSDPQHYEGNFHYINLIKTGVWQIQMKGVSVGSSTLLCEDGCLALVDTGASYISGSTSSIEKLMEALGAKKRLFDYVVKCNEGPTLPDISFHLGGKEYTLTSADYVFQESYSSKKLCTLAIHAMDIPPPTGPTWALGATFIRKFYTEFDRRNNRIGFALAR
The test can be described thus: IC50 for renin, fluorescence of quenched peptide substrate (protocols of Example 3 or 4). Format: biochemical. As to conditions: protocols described in Example 3 or 4; class according to the IC50 values; read-out: IC50 for renin, class in words. The method, then: The sequence of this peptide corresponds to the sequence of human angiotensinogen. The following test protocol is used: All reactions are carried out in a flat bottom white opaque microtiter plate. A 4 μL aliquot of 400 μM renin substrate (DABCYL-γ-Abu-[…]EDANS) in 192 μL assay buffer (50 mM BES, 150 mM NaCl, 0.25 mg/mL bovine serum albumin, pH7.0) is added to 4 μL of test compound in DMSO at various concentrations ranging from 10 μM to 1 nM final concentrations. Next, 100 μL of trypsin-activated recombinant human renin (final enzyme concentration of 0.2-2 nM) in assay buffer is added, and the solution is mixed by pipetting. The increase in fluorescence at 495 nm (excitation at 340 nm) is measured for 60-360 min at rt using a Perkin-Elmer Fusion microplate reader. The slope of a linear portion of the plot of fluorescence increases as a function of time is then determined, and the rate is used for calculating percent inhibition in relation to uninhibited control. […]
All reactions are carried out in a low volume, black, 384 well microtiter plate (Greiner Bio-one). […] After 2 hours of reaction at room temperature, the plates were read on a Viewlux™ (Perkin Elmer) with an excitation/emission of 485/530 nm, and using a 505 nm cutoff filter. […]
The IC50 values of the disclosed compounds for renin were determined according to the protocols described in Example 3 or 4. […]

Consider `COCCCCC(O)(CCN(C)C(=O)[C@H]1C[C@@H](N)[C@@H](O)C1)c1cccc(Cl)c1-c1cccc(C)c1` (stereo partly drawn) [Compound 1, (1S,3R,4S)-3-amino-N-[3-(6-chloro-3′-methyl-2-biphenylyl)-3-hydroxy-7-(methyloxy)heptyl]-4-hydroxy-N-methylcyclopentanecarboxamide], for which the IC50 was in the range of 0.01 to 50 nM. For `COCCCC[C@](O)(CCN(C)C(=O)[C@H]1C[C@@H](N)[C@@H](O)C1)c1cccc(Cl)c1-c1cccc(C)c1` [Compound 11, (1S,3R,4S)-3-amino-N—((S)-3-(6-chloro-3′-methylbiphenyl-2-yl)-3-hydroxy-7-methoxyheptyl)-4-hydroxy-N-methylcyclopentanecarboxamide], the half-inhibitory concentration (IC50) was in the range of 0.01 to 50 nM.
